Measured values reported in BindingDB's records for doi:10.1111/cbdd.12342 (Zhejiang University, 2014).

Biological target: T1, Proteasome subunit beta type-5 (Homo sapiens, UniProt P28074)
T1 sequence (P28074 whole entry): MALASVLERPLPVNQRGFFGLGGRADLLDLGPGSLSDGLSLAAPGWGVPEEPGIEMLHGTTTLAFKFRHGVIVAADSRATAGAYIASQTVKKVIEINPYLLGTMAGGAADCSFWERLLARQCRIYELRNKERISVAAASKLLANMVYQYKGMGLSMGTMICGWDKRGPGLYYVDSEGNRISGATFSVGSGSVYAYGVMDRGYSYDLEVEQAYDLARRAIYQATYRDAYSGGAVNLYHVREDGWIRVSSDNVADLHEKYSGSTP
Experiment: 20S proteasome chymotrypsin-like inhibition assay

| IC50 [µM] | SMILES |
| --- | --- |
| 0.97 | CC(C)C[C@H](NC(=O)CC(NC(=O)c1ccc(F)cc1)c1ccccc1)C(=O)N[C@@H](CC(C)C)C(=O)[C@@]1(C)CO1 (some centres undefined) [4-Fluoro-N-{3-{S-4-methyl-1-[S-4-methyl-1-(R-2-methyloxiran-2-yl)-1-oxopentan-2-ylamino]-1-oxopentan-2-ylamino}-3-oxo-1-phenylpropyl} benzamide (21d)] |
| 1.01 | COc1ccc(C(=O)NC(CC(=O)N[C@@H](CC(C)C)C(=O)N[C@@H](CC(C)C)C(=O)[C@@]2(C)CO2)c2ccccc2)cc1 (some centres undefined) [4-Methoxy-N-{3-{S-4-methyl-1-[S-4-methyl-1-(R-2-methyloxiran-2-yl)-1-oxopentan-2-ylamino]-1-oxopentan-2-ylamino}-3-oxo-1-phenylpropyl} benzamide (21e)] |
| 1.42 | CC(C)C[C@H](NC(=O)CC(NC(=O)c1ccccc1)c1ccccc1)C(=O)N[C@@H](CC(C)C)C(=O)[C@@]1(C)CO1 (some centres undefined) [N-{3-{S-4-Methyl-1-[S-4-methyl-1-(R-2-methyloxiran-2-yl)-1-oxopentan-2-ylamino]-1-oxopentan-2-ylamino}-3-oxo-1-phenylpropyl} benzamide (21c)] |
| 1.85 | CC(C)C[C@H](NC(=O)CC(NC(=O)c1cccnc1)c1ccccc1)C(=O)N[C@@H](CC(C)C)C(=O)[C@@]1(C)CO1 (some centres undefined) [N-{3-{S-4-Methyl-1-[S-4-methyl-1-(R-2-methyloxiran-2-yl)-1-oxopentan-2-ylamino]-1-oxopentan-2-ylamino}-3-oxo-1-phenylpropyl} nicotinamide (21b)] |
